Like-named read-outs stand apart in the source and are kept apart here.
Key:
[1] = system: wild-type HIV-1 strain (strain LAI); test: Anti-HIV-1 activity in infected human PBMCs; format: cell-based; settings: cytotoxicity versus anti-HIV activity
[2] = target: T1, HIV-1 integrase (wild-type IN) (Human immunodeficiency virus type 1 group M subtype B, UniProt P12497); test: biochemical
[3] = target: T1, HIV-1 integrase (wild-type IN); test: biochemical; remark: listed apart in the source
[4] = Actual ST pIC50, −log IC50 of strand transfer, used for 3D-QSAR
[5] = IC50 ST (strand transfer), wild-type IN 200 nM, 7.5 mM MnCl2

| SMILES | IC50 [2] [µM] | IC50 [3, 5] [µM] | further results |
| --- | --- | --- | --- |
| O=C(O)c1cc(Br)cc(C(=O)/C=C/c2ccc3sccc3c2)c1O [Compound 49, 3-(3-Benzo[b]thiophen-5-yl-acryloyl)-5-bromo-2-hydroxybenzoic acid] |  |  | Selectivity index [1]: up to 4 fold |
| COc1cc(F)c(/C=C/C(=O)c2cc(Br)cc(C(=O)O)c2O)cc1OC [Compound 41, 5-Bromo-3-[3-(2-fluoro-4,5-dimethoxyphenyl)-acryloyl]-2-hydroxybenzoic acid] | > 100 |  |  |
| O=C(O)c1cc(Br)cc(C(=O)/C=C/c2c(Cl)ccc(Cl)c2Cl)c1O [Compound 25, 5-Bromo-2-hydroxy-3-[3-(2,3,6-trichlorophenyl)-acryloyl]benzoic acid] |  | < 3.7 | IC50 [3, 4]: 3.98 µM |
| O=C(O)c1cc(Br)cc(C(=O)/C=C/c2cccc(OC(F)(F)F)c2)c1O [Compound 52, 5-Bromo-2-hydroxy-3-[3-(3-trifluoromethoxyphenyl)-acryloyl]benzoic acid] | > 100 |  |  |
| O=C(O)c1cc(Br)cc(C(=O)/C=C/c2ccccc2-c2ccco2)c1O [Compound 50, 5-Bromo-3-[3-(2-furan-2-yl-phenyl)-acryloyl]-2-hydroxybenzoic acid] | > 100 |  |  |
| Cc1cccc(C(=O)NCc2ccc(F)cc2)c1O [Compound 62, N-(4-Fluoro-benzyl)-2-hydroxy-3-methylbenzamide] |  | > 100 |  |
| O=C(/C=C/c1cc(Cl)cc(Cl)c1Cl)c1cc(Br)cc([N+](=O)[O-])c1O [Compound 58, 1-(5-Bromo-2-hydroxy-3-nitrophenyl)-3-(2,3,5-trichlorophenyl)propenone] | > 333 | 68 ± 5 | IC50 [3, 4]: 69.2 µM |
| Cc1cc(C)cc(/C=C/C(=O)c2cc(Br)cc(C(=O)O)c2O)c1 [Compound 39, 5-Bromo-3-[3-(3,5-dimethylphenyl)-acryloyl]-2-hydroxybenzoic acid] | > 100 |  |  |
| COc1ccc(/C=C/C(=O)c2cc(Br)cc(C(=O)O)c2O)c(Cl)c1OC [Compound 40, 5-Bromo-3-[3-(2-chloro-3,4-dimethoxyphenyl)-acryloyl]-2-hydroxybenzoic acid] | > 100 |  |  |
| O=C(/C=C/c1c(Cl)ccc(Cl)c1Cl)c1cc(Br)cc([N+](=O)[O-])c1O [Compound 59, 1-(5-Bromo-2-hydroxy-3-nitrophenyl)-3-(2,3,6-trichlorophenyl)propenone] | 36 ± 4 | 21 ± 3 | IC50 [3, 4]: 21.4 µM |
| Cc1cc(C(=O)O)c(O)c(C(=O)/C=C/c2c(Cl)ccc(Cl)c2Cl)c1 [Compound 57, 2-Hydroxy-5-methyl-3-[3-(2,3,6-trichlorophenyl)-acryloyl]benzoic acid] | > 100 |  | Times less active than corresponding Br-substituted compound 25 ([3]; ST inhibition, comparison with compound 25): 13 times |
| O=C(O)c1cc(Br)cc(C(=O)NCc2ccc(F)cc2)c1O [Compound 61, 5-Bromo-N-(4-fluorobenzyl)-2-hydroxyisophthalamic acid] | > 100 |  |  |
| O=C(NCc1ccc(F)cc1)c1cc(Br)ccc1O [Compound 63, 5-Bromo-N-(4-fluoro-benzyl)-2-hydroxybenzamide] |  | > 100 |  |
| COc1ccc2cc(C=CC(=O)c3cc(Br)cc(C(=O)O)c3O)ccc2c1 [Compound 48, 5-Bromo-2-hydroxy-3-[3-(6-methoxynaphthalen-2-yl)-acryloyl]benzoic acid] |  | 54 ± 25 | IC50 [3, 4]: 55 µM |
| O=Cc1cc(Br)cc(C(=O)NCc2ccc(F)cc2)c1O [Compound 8, 5-Bromo-N-(4-fluorobenzyl)-3-formyl-2-hydroxybenzamide] | > 100 |  |  |
| N#Cc1cc(Br)cc(C(=O)/C=C/c2c(Cl)ccc(Cl)c2Cl)c1O [Compound 56, 5-Bromo-2-hydroxy-3-[3-(2,3,6--trichlorophenyl)-acryloyl]benzonitrile] | > 100 |  |  |
| O=C(O)c1cc(Cl)cc(C(=O)/C=C/c2ccc(Cl)cc2Cl)c1O [Compound 27, 5-Chloro-3-[3-(2,4-dichlorophenyl)-acryloyl]-2-hydroxybenzoic acid] |  | > 100 |  |
| O=C(O)c1cc(F)cc(C(=O)CCc2cc(Cl)ccc2Cl)c1O [Compound 60, 3-[3-(2,5-dichlorophenyl)propionyl]-5-fluoro-2-hydroxybenzoic acid] | > 100 |  |  |
| O=C(O)c1cccc(CCCc2ccccc2)c1O [Compound 9, 2-hydroxy-3-(3-phenylpropyl)benzoic acid] | 91 | > 100 |  |

Reference: paper PMC3866048 (Bioorganic & medicinal chemistry, 2011)
